Assay results published in ChEMBL document CHEMBL1154684, “Cytotoxicity of new n-butylamino and sulfur-containing derivatives of polyfluorinated 1,4-naphthoquinone” (Eur J Med Chem, 2010).
Converted amounts (≈) assume the structure as drawn. The source made the active and inactive calls. No cut-off for these calls is given here.

Key:
[1] = test system: RPMI-8226; test: Cytotoxicity against human RPMI8226 at 25 ug/ml after 72 hrs by MTT assay; type: functional; details: RPMI-8226, 72 h
[2] = test system: MCF7; test: Cytotoxicity against human MCF7 at 25 ug/ml after 72 hrs by MTT assay; type: functional, cell-based; details: MCF7, 72 h
[3] = test system: Salmonella typhimurium; test: Antimutagenic activity in Salmonella Typhimurium TA102 assessed as inhibition of H2O2-induced mutagenesis at 0.05 to […] after 48 hrs by Ames test; type: functional, organism-based; details: Salmonella enterica subsp. enterica serovar Typhimurium
[4] = test system: Salmonella typhimurium; test: Antimutagenic activity in Salmonella Typhimurium TA102 assessed as inhibition of H2O2-induced mutagenesis at 26.9 uM after 48 hrs by Ames test; type: functional, organism-based, Salmonella enterica subsp. enterica serovar Typhimurium
[5] = test system: Salmonella typhimurium; test: Antimutagenic activity in Salmonella Typhimurium TA102 assessed as inhibition of H2O2-induced mutagenesis at 23.5 uM after 48 hrs by Ames test; type: functional, Salmonella enterica subsp. enterica serovar Typhimurium; details: Salmonella enterica, TA102, 48 h
[6] = test system: MCF7; test: Cytotoxicity against human MCF7 after 72 hrs by MTT assay; type: functional, cell-based
[7] = test system: RPMI-8226; test: Cytotoxicity against human RPMI8226 after 72 hrs by MTT assay; type: functional, cell-based
[8] = Cytotoxicity against mouse LMTK at 173 uM after 72 hrs by MTT assay

Question: What does the source list for `CCCCNC1=C(F)C(=O)c2c(F)c(NCCCC)c(F)c(F)c2C1=O`?
Answer: inhibition at 25 µg/mL [1]: 17%; inhibition at 25 µg/mL [2]: 10%; Activity [3]: Active; Inhibition [4]: 81%

Question: With `CCCCNC1=C(F)C(=O)c2c(F)c(NCCCC)c(F)c(NCCCC)c2C1=O` as the compound, how does the inhibition at 25 µg/mL [1] read?
Answer: The inhibition at 25 µg/mL was 30%.

Question: What about the inhibition at 25 µg/mL [2] of the same compound?
Answer: The inhibition at 25 µg/mL was 45%.

Question: And the Activity [3]?
Answer: The Activity was “Active”.

Question: What about the inhibition at 23.5 µM [5] of the same compound?
Answer: The inhibition at 23.5 µM was 55%.

Question: For `CC1=C(SCCO)C(=O)c2c(F)c(F)c(F)c(F)c2C1=O`, which IC50 [6] is on record?
Answer: Its IC50 is 173 mg/L (≈ 540 µM).

Question: And the IC50 [7]?
Answer: The IC50 was 14.8 mg/L (≈ 46.2 µM).

Question: What about the IC50 [8] of the same compound?
Answer: Its IC50 is “Not Active”.
